Values quoted from earlier work, collected in patent US20240000829A1, “COPOLYMER CONTAINING POLY(ETHYLENE GLYCOL) AND POLY(L-AMINO ACID DERIVATIVE), MICROPARTICLES THEREOF AND USE THEREOF IN PHARMACEUTICAL COMPOSITION” (University of Tsukuba, priority 2020, published 2024).

System: patients with hepatic disorders such as hepatic cirrhosis
Conditions: reported; Non-Patent Document 1

## NCCC[C@H](N)C(=O)O [L-ornithine]
  ammonia level / concentration: reduced ammonia levels
